Experimental data reported in patent US11357752B2, “Carolacton and derivatives thereof for use in the treatment of cell proliferation disorders” (Helmholtz-Zentrum für Infektionsforschung GmbH, priority 2017, dated 2022).
Like-named read-outs stand apart in the source and are kept apart here.

How the values were obtained:
Test in all cases: FoID dehydrogenase (DH) enzyme assay
hsMTHFD1 DC301 = target: T1, hsMTHFD1 DC301 (Homo sapiens, UniProt P11586); assay type: biochemical
T1 construct: We therefore expressed and purified hsMTHFD2 and hsMTHFD1_DC to test them biochemically; His-tag (vector pHis-TEV); made in house; host or cells: E. coli BL21 (DE3)
T1 sequence (P11586 2-291 limits assumed): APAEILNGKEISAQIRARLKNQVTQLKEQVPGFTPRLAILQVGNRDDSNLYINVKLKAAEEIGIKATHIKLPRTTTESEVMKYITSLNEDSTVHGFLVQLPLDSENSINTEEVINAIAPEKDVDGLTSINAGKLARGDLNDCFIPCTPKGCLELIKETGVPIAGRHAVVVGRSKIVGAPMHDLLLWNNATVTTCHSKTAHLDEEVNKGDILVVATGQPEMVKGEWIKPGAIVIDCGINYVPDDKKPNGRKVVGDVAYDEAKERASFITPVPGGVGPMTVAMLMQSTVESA
Procedure: (§1) (6R,S)-5,10-Methylene-5,6,7,8-tetrahydrofolic acid ((6R,S)-5,10-CH2-THF), calcium salt and (6R,S)-5,10-Methenyl-5,6,7,8-tetrahydrofolic acid ((6R,S)-5,10-CH=THF) chloride were purchased from Schircks Laboratories (Bauma, Switzerland) and were used as substrates for FoID dehydrogenase and cyclohydrolase enzyme assays, respectively. Only the R-isomer, which accounts for 50% of (6R,S)-5,10-CH2-THF and (6R,S)-5,10-CH=THF, respectively, is used by the enzyme. (6R,S)-5,10-CH2-THF was dissolved in N2-spargeled basic buffer (50 mM Tris-HCl (pH 8.0), 100 mM β-mercaptoethanol) as described by Sah and Varshney, 2015a (6R,S)-5,10-CH=THF was first dissolved in DMSO as a 100 mM stock solution.
(§2) Because FoID is a bifunctional enzyme, dehydrogenase and cyclohydrolase activities were determined for FoID enzyme kinetics, respectively. The dehydrogenase activity of FoID was assayed for its substrate 5,10-CH2-THF and cofactor NADP+ (in the case of MTHFD2, NAD+ was used as cofactor) based on monitoring the formation of 5,10-CH=THF while the cyclohydrolase activity of FoID was determined for its substrate 5,10-CH=THF by monitoring the hydrolysis of 5,10-CH2-THF. The enzyme kinetics for the dehydrogenase activity of all FoIDs except hsMTHFD1_DC were determined at 30° C. in 50 mM Tris-HCl (pH 7.5), 30 mM β-mercaptoethanol. The hsMTHFD1_DC dehydrogenase activity was measured in 25 mM MOPS (pH 7.3), 30 mM β-mercaptoethanol at 30° C. To measure the enzyme kinetics constants for 5,10-CH2-THF, for example in the case of ecFoID, the NADP concentration was fixed at 1 mM and the concentration of 5,10-CH2-THF varied from 5 μM to 1,500 μM (R-isomer). Similarly, to measure the kinetic constants of ecFoID for NADP+, the concentration of 5,10-CH2-THF (R-isomer) was fixed at 1 mM and the concentration of NADP+ varied from 10 μM to 1,500 μM. For different FoIDs, the varied concentration range of substrates could be different. The 50 μL reactions of dehydrogenase assays were initiated by adding appropriate amounts enzyme (4 nM ecFoID, 4 nM spFoID, 15 nM hsMTHFD1_DC, 20 nM hsMTHFD2, 20 nM G8S, 20 nM Q98H, 10 nM K54N, 200 nM ΔK54R55 in the corresponding assays) and terminated with 50 μL 1 M HCl after 2 min incubation at 30° C. To monitor the formation of 5,10-CH=THF, the absorbance of the reaction mixture was monitored at 350 nm in micro UV cuvettes (BRAND, Essex, Connecticut, USA). The concentration of 5,10-CH=THF produced in the reaction was determined using an extinction co-efficient of 0.0249 μM-1 cm-1. Cyclohydrolase activity for each FoID was assayed in the same buffer as dehydrogenase activity at 30° C. but for 30 s. The concentration of FoID used in each assay was 5 nM of ecFoID, spFoID and hsMTHFD1_DC, respectively, and 2 nM of hsMTHFD2. The consumption of 5,10-CH=THF was measured by recording the absorbance of the reactions at 355 nm using the TECAN Infinite 200 PRO equipped with a monochromator. To measure the enzyme kinetic constants, different concentrations of 5,10-CH=THF (varied from […]) were used in […] reaction mixtures. The inhibition constants (Ki) of carolacton on FoID were determined by measuring the apparent Km values when adding certain amounts of carolacton to the enzyme reactions. For ecFoID, 10 nM carolacton was added in the dehydrogenase assay and 50 nM carolacton was used in the cyclohydrolase assay. For spFoID, 25 nM carolacton was added in both dehydrogenase assay and cyclohydrolase assay. For hsMTHFD1_DC, 30 nM carolacton was added in the dehydrogenase assay and 10 nM in the cyclohydrolase assay. […] To compare the inhibition effects of carolacton between the different FoIDs, the half maximal inhibitory concentration (IC50) of carolacton on the same amount of enzyme was determined for FoIDs involved in this study. The enzyme concentration used to determine dehydrogenase activity IC50 was 10 nM, and the enzyme used for cyclohydrolase IC50 measurements was 5 nM. All enzyme kinetics measurements were performed as independent triplicates. […]

hsMTHFD2 = target: T2, hsMTHFD2 (Homo sapiens, UniProt P13995); assay type: biochemical
T2 construct: His-tag (vector pHis-TEV); made in house; host or cells: E. coli BL21 (DE3)
T2 sequence (P13995 36-350): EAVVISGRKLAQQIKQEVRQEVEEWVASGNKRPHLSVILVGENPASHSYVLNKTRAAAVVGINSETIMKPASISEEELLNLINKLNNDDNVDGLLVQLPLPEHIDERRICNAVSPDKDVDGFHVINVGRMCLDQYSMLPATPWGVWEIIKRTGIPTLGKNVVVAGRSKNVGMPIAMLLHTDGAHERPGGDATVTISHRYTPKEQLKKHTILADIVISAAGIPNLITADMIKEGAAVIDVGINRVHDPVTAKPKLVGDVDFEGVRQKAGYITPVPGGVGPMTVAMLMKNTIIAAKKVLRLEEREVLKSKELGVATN
Procedure: as §1, §2

spFoID = target: T3, spFoID (Streptococcus pneumoniae serotype 4, UniProt Q97RI9); assay type: biochemical, S. pneumoniae
T3 construct: made in house; host or cells: E. coli BL21 (DE3)
Procedure: as §1
Because FoID is a bifunctional enzyme, dehydrogenase and cyclohydrolase activities were determined for FoID enzyme kinetics, respectively. The dehydrogenase activity of FoID was assayed for its substrate 5,10-CH2-THF and cofactor NADP+ (in the case of MTHFD2, NAD+ was used as cofactor) based on monitoring the formation of 5,10-CH=THF while the cyclohydrolase activity of FoID was determined for its substrate 5,10-CH=THF by monitoring the hydrolysis of 5,10-CH2-THF. The enzyme kinetics for the dehydrogenase activity of all FoIDs except hsMTHFD1_DC were determined at 30° C. in 50 mM Tris-HCl (pH 7.5), 30 mM β-mercaptoethanol. The hsMTHFD1_DC dehydrogenase activity was measured in 25 mM MOPS (pH 7.3), 30 mM β-mercaptoethanol at 30° C. To measure the enzyme kinetics constants for 5,10-CH2-THF, for example in the case of ecFoID, the NADP concentration was fixed at 1 mM and the concentration of 5,10-CH2-THF varied from 5 μM to 1,500 μM (R-isomer). Similarly, to measure the kinetic constants of ecFoID for NADP+, the concentration of 5,10-CH2-THF (R-isomer) was fixed at 1 mM and the concentration of NADP+ varied from 10 μM to 1,500 μM. For different FoIDs, the varied concentration range of substrates could be different. […] To monitor the formation of 5,10-CH=THF, the absorbance of the reaction mixture was monitored at 350 nm in micro UV cuvettes (BRAND, Essex, Connecticut, USA). The concentration of 5,10-CH=THF produced in the reaction was determined using an extinction co-efficient of 0.0249 μM-1 cm-1. […] The consumption of 5,10-CH=THF was measured by recording the absorbance of the reactions at 355 nm using the TECAN Infinite 200 PRO equipped with a monochromator. […] The inhibition constants (Ki) of carolacton on FoID were determined by measuring the apparent Km values when adding certain amounts of carolacton to the enzyme reactions. […] To compare the inhibition effects of carolacton between the different FoIDs, the half maximal inhibitory concentration (IC50) of carolacton on the same amount of enzyme was determined for FoIDs involved in this study. […]

[1] = 10 nM enzyme, read-out: IC50, carolacton inhibition on DH activity
[2] = vs 5,10-CH2-THF, read-out: Ki (5,10-CH2—THF), carolacton inhibition on DH activity
[3] = vs cofactor NADP+, read-out: Ki (NADP^+), carolacton inhibition on DH activity

T3 sequence (Q97RI9 whole entry): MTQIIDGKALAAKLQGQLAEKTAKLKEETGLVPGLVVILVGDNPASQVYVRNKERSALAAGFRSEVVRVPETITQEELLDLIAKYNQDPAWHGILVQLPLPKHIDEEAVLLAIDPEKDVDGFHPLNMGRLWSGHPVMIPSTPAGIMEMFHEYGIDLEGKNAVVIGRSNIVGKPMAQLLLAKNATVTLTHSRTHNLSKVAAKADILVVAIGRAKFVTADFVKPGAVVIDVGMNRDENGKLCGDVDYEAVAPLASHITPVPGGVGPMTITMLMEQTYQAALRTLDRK

Q: `CO[C@H](CC(=O)O)[C@@H](C)C(=O)[C@H](C)/C=C(\C)[C@H]1OC(=O)[C@H](O)[C@H](O)/C=C/[C@H](C)CCC[C@@H]1C` [Carolacton, carolacton] was tested. Which IC50 (hsMTHFD1 DC301; [1]) did it give?
A: Its IC50 is 38 nM.

Q: What about the Ki (hsMTHFD1 DC301; [2]) of the same molecule?
A: The Ki was 5.93 nM.

Q: What about the Ki (hsMTHFD1 DC301; [3]) of the same molecule?
A: Its Ki is 58.7 nM.

Q: What about the IC50 (hsMTHFD2; [1]) of the same molecule?
A: Its IC50 is 6.5 nM.

Q: And the Ki (hsMTHFD2; cofactor is NAD in the case of hsMTHFD2, read-out: Ki (NADP^+)^a, carolacton inhibition on DH activity)?
A: The Ki was 16.7 nM.

Q: What about the Ki (hsMTHFD2; [2]) of the same molecule?
A: The Ki was 6.42 nM.

Q: And the IC50 (spFoID; [1])?
A: The IC50 was 36.8 nM.

Q: What about the IC80 (spFoID; 10 nM enzyme, read-out: IC80, carolacton inhibition on DH activity) of the same molecule?
A: The IC80 was 169 nM.

Q: And the Ki (spFoID; [2])?
A: Its Ki is 42.2 nM.

Q: And the Ki (spFoID; [3])?
A: Its Ki is 34.2 nM.
